In assay [1] the target is T1, Testis-specific serine/threonine-protein kinase 2 (Homo sapiens) (UniProt Q96PF2).
T1 sequence (whole entry): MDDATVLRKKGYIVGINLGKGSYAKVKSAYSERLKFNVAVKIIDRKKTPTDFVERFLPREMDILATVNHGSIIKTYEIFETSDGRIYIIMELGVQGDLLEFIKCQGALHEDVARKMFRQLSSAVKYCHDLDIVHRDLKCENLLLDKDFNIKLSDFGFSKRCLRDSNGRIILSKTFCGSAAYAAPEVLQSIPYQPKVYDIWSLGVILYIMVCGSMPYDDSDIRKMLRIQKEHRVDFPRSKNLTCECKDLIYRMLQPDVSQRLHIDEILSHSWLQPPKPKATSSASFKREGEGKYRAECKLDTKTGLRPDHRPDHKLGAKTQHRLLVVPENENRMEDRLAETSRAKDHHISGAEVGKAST
The assay is described as follows: Residual activity of TSK2 at 1 uM by microplate scintillation counting.

For assay [2], the target named is CDK6/cyclin D1 (Homo sapiens) (UniProt P24385+Q00534). Description: Residual activity of CDK6/Cyclin D1 at 1 uM by microplate scintillation counting. It counts as protein-complex assay.
The target of assay [3] is T2, Serine/threonine-protein kinase Nek11 (Homo sapiens) (UniProt Q8NG66).
T2 sequence (whole entry): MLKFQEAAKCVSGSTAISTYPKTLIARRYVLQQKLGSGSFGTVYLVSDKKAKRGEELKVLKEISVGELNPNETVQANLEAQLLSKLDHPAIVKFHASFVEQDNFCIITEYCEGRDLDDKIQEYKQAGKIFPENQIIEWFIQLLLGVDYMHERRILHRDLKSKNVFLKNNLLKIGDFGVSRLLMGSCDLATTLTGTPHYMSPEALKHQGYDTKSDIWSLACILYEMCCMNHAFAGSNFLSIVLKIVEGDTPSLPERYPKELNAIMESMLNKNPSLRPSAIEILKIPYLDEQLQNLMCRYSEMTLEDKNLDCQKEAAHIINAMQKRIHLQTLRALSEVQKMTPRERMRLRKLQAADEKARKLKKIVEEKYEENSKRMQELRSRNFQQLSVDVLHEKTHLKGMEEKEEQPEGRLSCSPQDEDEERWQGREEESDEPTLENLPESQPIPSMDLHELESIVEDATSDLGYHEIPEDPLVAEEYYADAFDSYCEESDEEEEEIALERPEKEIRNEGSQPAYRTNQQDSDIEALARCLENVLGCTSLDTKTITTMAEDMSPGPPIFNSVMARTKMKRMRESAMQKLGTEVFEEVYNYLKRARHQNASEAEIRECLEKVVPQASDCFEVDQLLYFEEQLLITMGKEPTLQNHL
Description: Residual activity of NEK11 at 1 uM by microplate scintillation counting.

Assay [4] has as its target Casein kinase I isoform gamma-3 (Homo sapiens) (UniProt Q9Y6M4). The assay is described as follows: Residual activity of CK1gamma3 at 1 uM by microplate scintillation counting.
Assay [5] concerns the target T3, Tyrosine-protein kinase ZAP-70 (Homo sapiens) (UniProt P43403).
T3 sequence (whole entry): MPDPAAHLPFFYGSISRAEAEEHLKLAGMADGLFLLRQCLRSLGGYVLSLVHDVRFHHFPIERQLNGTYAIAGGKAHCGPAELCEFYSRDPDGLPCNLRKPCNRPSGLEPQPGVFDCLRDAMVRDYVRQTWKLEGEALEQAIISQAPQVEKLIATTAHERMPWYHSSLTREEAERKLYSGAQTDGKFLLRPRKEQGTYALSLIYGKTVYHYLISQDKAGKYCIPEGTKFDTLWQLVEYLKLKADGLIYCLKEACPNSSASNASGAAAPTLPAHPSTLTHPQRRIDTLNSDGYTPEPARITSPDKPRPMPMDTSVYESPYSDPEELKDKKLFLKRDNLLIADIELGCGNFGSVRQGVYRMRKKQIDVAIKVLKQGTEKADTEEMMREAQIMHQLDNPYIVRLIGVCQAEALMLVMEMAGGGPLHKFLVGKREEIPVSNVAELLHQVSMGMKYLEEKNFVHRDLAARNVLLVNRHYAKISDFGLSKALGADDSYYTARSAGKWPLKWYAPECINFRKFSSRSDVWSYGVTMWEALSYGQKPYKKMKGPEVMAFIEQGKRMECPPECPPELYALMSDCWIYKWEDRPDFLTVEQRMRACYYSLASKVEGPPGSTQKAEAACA
Description: Residual activity of ZAP70 at 10 uM by microplate scintillation counting.

For assay [6], the target named is Protein kinase C delta type (Homo sapiens) (UniProt Q05655). The assay is described as follows: Residual activity of PKCdelta at 1 uM by microplate scintillation counting.
Assay [7] deals with G protein-coupled receptor kinase 5 (Homo sapiens) (UniProt P34947). The assay is described as follows: Residual activity of GRK5 at 10 uM by microplate scintillation counting.
For assay [8], the target named is Dual specificity tyrosine-phosphorylation-regulated kinase 1A (Homo sapiens) (UniProt Q13627). The assay is described as follows: Residual activity of DYRK1A at 0.1 uM by microplate scintillation counting.
Assay [9] concerns the target T4, cAMP-dependent protein kinase catalytic subunit PRKX (Homo sapiens) (UniProt P51817).
T4 sequence (whole entry): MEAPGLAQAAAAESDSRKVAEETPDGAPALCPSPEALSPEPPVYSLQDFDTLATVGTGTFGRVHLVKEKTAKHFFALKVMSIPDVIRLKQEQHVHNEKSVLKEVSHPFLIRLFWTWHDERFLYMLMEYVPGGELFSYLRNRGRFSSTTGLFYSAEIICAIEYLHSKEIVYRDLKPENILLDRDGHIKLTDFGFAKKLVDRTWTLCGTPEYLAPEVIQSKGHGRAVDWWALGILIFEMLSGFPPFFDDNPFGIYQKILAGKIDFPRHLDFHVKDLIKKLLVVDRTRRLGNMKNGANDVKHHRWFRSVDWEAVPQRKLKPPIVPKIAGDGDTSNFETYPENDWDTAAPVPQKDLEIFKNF
The assay is described as follows: Residual activity of PRKX at 10 uM by microplate scintillation counting.

The target in assay [10] is T5, TGF-beta receptor type-1 (Homo sapiens) (UniProt P36897).
T5 sequence (whole entry): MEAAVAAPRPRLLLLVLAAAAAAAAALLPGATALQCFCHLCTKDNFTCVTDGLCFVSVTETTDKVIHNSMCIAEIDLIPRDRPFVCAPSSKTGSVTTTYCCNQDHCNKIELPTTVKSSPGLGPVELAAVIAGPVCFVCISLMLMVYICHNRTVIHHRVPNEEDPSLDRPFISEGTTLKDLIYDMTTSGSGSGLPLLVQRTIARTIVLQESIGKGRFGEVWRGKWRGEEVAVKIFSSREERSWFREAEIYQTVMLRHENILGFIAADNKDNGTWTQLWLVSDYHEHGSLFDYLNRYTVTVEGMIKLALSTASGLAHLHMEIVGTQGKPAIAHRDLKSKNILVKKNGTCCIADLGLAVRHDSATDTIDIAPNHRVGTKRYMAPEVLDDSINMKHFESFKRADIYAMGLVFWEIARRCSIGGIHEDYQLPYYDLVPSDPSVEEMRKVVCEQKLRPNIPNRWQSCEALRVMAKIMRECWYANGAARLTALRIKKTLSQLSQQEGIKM
The assay is described as follows: Residual activity of TGFB-R1 at 10 uM by microplate scintillation counting.

The structures appear in SMILES notation.

Broadly, the residual activity is the signal under treatment as a percentage of the control signal.

Sequence of G protein-coupled receptor kinase 5 (Homo sapiens) (P34947 whole entry, looked up): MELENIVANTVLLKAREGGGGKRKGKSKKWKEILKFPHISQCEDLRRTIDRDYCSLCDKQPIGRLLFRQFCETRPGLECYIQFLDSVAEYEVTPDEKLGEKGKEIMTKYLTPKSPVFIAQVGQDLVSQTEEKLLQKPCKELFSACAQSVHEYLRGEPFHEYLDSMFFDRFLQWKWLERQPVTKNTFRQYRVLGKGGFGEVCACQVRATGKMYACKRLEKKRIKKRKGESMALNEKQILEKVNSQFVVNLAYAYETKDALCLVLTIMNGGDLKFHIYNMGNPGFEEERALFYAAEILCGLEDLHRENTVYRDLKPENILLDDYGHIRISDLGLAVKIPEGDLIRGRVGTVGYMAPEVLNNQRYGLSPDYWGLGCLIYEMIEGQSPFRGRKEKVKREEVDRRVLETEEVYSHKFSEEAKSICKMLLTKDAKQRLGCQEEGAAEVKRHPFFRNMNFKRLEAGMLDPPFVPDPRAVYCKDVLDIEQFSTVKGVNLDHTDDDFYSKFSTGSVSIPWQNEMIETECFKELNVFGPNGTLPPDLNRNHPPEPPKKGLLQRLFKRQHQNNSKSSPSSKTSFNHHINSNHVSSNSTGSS
Sequence of Casein kinase I isoform gamma-3 (Homo sapiens) (Q9Y6M4 whole entry, looked up, canonical isoform): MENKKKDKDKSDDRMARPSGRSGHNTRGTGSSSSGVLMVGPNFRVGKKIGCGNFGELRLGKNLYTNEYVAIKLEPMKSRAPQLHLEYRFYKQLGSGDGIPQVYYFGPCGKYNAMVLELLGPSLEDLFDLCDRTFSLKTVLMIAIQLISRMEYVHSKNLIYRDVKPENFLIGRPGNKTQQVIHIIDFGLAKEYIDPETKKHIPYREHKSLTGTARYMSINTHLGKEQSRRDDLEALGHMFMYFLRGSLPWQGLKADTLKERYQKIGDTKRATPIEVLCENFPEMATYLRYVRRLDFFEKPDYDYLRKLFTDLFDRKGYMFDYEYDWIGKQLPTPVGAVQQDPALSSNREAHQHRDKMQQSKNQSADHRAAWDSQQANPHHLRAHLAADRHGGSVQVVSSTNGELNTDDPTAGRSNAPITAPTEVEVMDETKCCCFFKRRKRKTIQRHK
Sequence of Protein kinase C delta type (Homo sapiens) (Q05655 whole entry, looked up): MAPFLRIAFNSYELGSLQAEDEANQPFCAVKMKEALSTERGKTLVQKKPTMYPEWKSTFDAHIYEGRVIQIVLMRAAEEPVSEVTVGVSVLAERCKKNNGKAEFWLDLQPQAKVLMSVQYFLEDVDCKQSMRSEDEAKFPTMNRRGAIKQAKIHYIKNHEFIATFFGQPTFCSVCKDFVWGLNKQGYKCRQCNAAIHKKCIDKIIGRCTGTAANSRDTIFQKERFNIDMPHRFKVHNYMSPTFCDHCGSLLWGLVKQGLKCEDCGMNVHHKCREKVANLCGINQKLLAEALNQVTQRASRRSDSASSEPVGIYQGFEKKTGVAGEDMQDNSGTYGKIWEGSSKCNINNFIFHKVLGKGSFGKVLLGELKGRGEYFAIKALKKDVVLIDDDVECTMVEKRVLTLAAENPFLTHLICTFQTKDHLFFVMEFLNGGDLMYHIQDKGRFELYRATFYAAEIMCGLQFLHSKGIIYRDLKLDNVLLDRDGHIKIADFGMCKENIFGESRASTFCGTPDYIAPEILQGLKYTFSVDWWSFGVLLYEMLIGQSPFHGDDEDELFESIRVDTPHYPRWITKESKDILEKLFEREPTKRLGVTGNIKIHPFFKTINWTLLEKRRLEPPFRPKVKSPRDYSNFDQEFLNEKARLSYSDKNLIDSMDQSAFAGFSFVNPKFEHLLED

Consider `COc1cc2c(Oc3ccc(-c4nc5ccccc5s4)cc3)ncnc2cc1OCCCN1CCCC1`, for which the residual activity was determined as 108% in assay [1]; 104% in assay [2]; 91% in [3]; 88% in assay [4]; 166% in assay [5]; 93% in assay [6]. Moreover, the residual activity was found to be 81% in assay [7], 87% in assay [8], 86% in assay [9] and 100% in assay [10].

For `COc1cc2c(Oc3ccc(-c4nc5ccccc5s4)cc3F)ncnc2cc1OCCCN1CCN(C)CC1`, the residual activity in assay [1] came to 98%; in assay [2], 100%; in [3], 93%; in assay [4], 92%; in assay [5], 230%; in assay [6], 94%. The residual activity in [7] amounted to 84%; in assay [8], 89%; in assay [9] it was 94%; in [10], 94%.

Take `COc1cc2c(Oc3ccc(-c4nc5ccccc5s4)cc3)ncnc2cc1OCCCN1CCN(C)CC1`: the residual activity in assay [1] is 92%; in [2] it was 109%; in [3], 104%; in assay [4] it was 83%; in assay [5] it was 341%; in [6] it was 103%. Also, the residual activity in assay [7] came out at 76%; in [8] it was 94%; in assay [9], 86%; in assay [10], 94%.
